Publication PMC12442099 (ACS Infectious Diseases, 2025)
≈ marks a conversion by molar mass, not a printed value.

Assays:
[1] = system: Rcs stress (PrprA-mNG) in E. coli TOP10F’ cells; assay: Rcs stress reporter assay, laboratory scale 96-well end point; format: cell-based; conditions: 50 μM MRL-494, 150 min, compared to 25 μM PMBN (100%)
Description: (§1) For lower throughput analysis under laboratory conditions, cultures grown to OD600 of 0.3–0.4 were diluted to a final concnetration of 0.05 OD600 units/mL in black, clear-bottom 96-well plates (Greiner Bio-One B.V.). Plates were incubated in a Biotek HTX or H1 plate reader (Agilent Technologies) at 37 °C with continuous shaking. Kinetic studies were performed by measuring OD600 and fluorescence (Ex./Em. Λ: 485/528 nm) every 20 min for 10h. For end point measurements, fluorescence was measured at T = 0 and once more at T = 150 min.

E. coli TOP10F' = assay: Growth inhibition after 7 hours (EC80/EC50); conditions: for EC50 / IC80: Escherichia coli, 7 h; for EC50: read-out: EC50 TOP10F'; for IC80: read-out: EC80 TOP10F'
[2] = system: Rcs stress response in E. coli MC4100 (WT, FQR, GEPR); assay: Rcs stress reporter assay in MC4100 wildtype and resistant mutants; format: cell-based; conditions: EC80 concentrations
Description: Serial passaging of E. coli MC4100 in the presence of increasing concentrations of lomefloxacin or gepotidacin yielded resistant variants of E. coli MC4100. We used MC4100 to raise resistance, because unlike the screening strain TOP10F’, this strain has a functional SOS stress response, which has been implicated in developing resistance against quinolones. Compounds also elicited a robust Rcs stress response in E. coli MC4100, allowing for this strain to be used for stress assays.
4 Rcs stress induced by EC80 concentrations of (A) lomefloxacin, (B) gepotidacin, (C) A2, and (D) B1 in wildtype (WT), fluoroquinolone resistant (FQR) or gepotidacin resistant (GEPR) bacteria. Graphs show the fold change in fluorescence adjusted for bacterial growth as determined by OD600. Error bars indicate the standard deviation of triplicate samples. Data are representative of three independent experiments with similar results. […]
as §1

[3] = system: Cpx stress response in E. coli TOP10F’; assay: Cpx stress kinetics reporter assay; format: cell-based
Description: (§2) Stress was measured in real-time during 10 h following compound treatment by normalizing the fluorescence intensity for growth as indicated by the optical density at 600 nm (OD600) of the culture.
(§3) 3 Bacterial stress responses of different compound classes as shown in panel (A). (B) Rcs, (C) σE, (D) Cpx, and (E) heat shock. Graphs show fold change in fluorescence normalized for OD600 at EC80 compound concentrations over the course of 10h. Fold change values were determined by comparing OD600‑normalized fluorescence of compound-treated samples to DMSO treated samples. PMBN is used as a CE stress-inducing control at 25 μg/mL, which is the concentration used as a control during the screening campaign. Chloramphenicol at 1 μg/mL is used as a non-stress-inducing antibiotic control. Error bars indicate standard deviation of the average of triplicate samples from at least two independent experiments. (F) Overview of the different stress responses based on the compound class.
as §1

[4] = system: Rcs stress response in E. coli TOP10F’; assay: Rcs stress kinetics reporter assay; format: cell-based
Description: as §2, §3, §1

[5] = system: E. coli MC4100 FQR and GEPR mutants; assay: Growth kinetics on resistant mutants; format: cell-based; conditions: EC80 concentrations, Fig. S3
Description: ONC of E. coli MC4100 were diluted to OD600 = 0.07 in 20 mL LB supplemented with an initial concentration of 0.4 μM lomefloxacin, 8 μM gepotidacin, or no antibiotic. After overnight incubation, part of the culture was plated onto LB agar plates with the same concentration of lomefloxacin or gepotidacin to isolate resistant colonies. OD600 of the remaining culture was determined and diluted to OD600 = 0.1 into fresh medium with a 1.5–2-fold increased concentration of lomefloxacin or gepotidacin. […] Resistant colonies were sent for Whole Genome Sequencing using short Illumina reads at MicrobesNG (Birmingham, UK). Sequencing data was analyzed using CLC Genomics Workbench (Qiagen).
Figure S3: Growth kinetics of lomefloxacin, gepotidacin, A2 and B1 on WT, FQR and GEPR mutants. E. coli
TOP10F’ cells were treated with EC80 concentrations of compounds and growth (OD600) recorded over time.
Graphs indicate % growth compared to DMSO control. Error bars indicate standard deviations of triplicates. […]

[6] = system: σE stress response in E. coli TOP10F’; assay: σE stress kinetics reporter assay; format: cell-based
Description: as §2, §3, §1

E. coli MC4100 = assay: Growth inhibition after 7 hours (EC80/EC50); conditions: Escherichia coli, MC4100, 7 h; for EC50: read-out: EC50 MC4100; for IC80: read-out: EC80 MC4100
E. coli TOP10F’ = assay: MIC broth microdilution; format: cell-based; conditions: Escherichia coli; screening strain; CAMHB, median of triplicates; read-out: MIC (μg/mL) E. coli TOP10F’
Description: (§4) The antibacterial activity of the compounds was determined by measuring their minimum inhibitory concentration (MIC) values using the broth microdilution method according to the Clinical and Laboratory Standards Institute guidelines (CLSI). Briefly, a single colony from blood agar plates was inoculated into cation-adjusted Mueller-Hinton broth (CAMHB) and grown to OD600 = 0.5. Next, 10^6 CFU/mL were added to a 2-fold serial dilution series of test compounds and incubated at 37 °C, 600 rpm overnight (18–20 h for Gram-negative strains, 20–24 h for Gram-positive strains), after which the plates were visually inspected for bacterial growth. MICs are reported as the median of triplicates.

S. aureus USA 300 = assay: MIC broth microdilution; format: cell-based; conditions: Staphylococcus aureus, USA300; clinical isolate; CAMHB, median of triplicates; read-out: MIC (μg/mL) S. aureus USA 300
Description: as §4

E. coli 25922 = assay: MIC broth microdilution; format: cell-based; conditions: Escherichia coli, CAMHB, median of triplicates, read-out: MIC (μg/mL) E. coli 25922
Description: as §4

A. baumanni 9955 = assay: MIC broth microdilution; format: cell-based; conditions: Acinetobacter baumannii, clinical isolate, CAMHB, median of triplicates, read-out: MIC (μg/mL) A. baumanni 9955
Description: as §4

E. coli BW25113 = assay: MIC broth microdilution; format: cell-based; conditions: Escherichia coli, CAMHB, median of triplicates, read-out: MIC (μg/mL) E. coli BW25113
Description: as §4

P. aeruginosa 27853 = assay: MIC broth microdilution; format: cell-based; conditions: Pseudomonas aeruginosa, clinical isolate, CAMHB, median of triplicates, read-out: MIC (μg/mL) P. aeruginosa 27853
Description: as §4

K. pneumoniae 13883 = assay: MIC broth microdilution; format: cell-based; conditions: Klebsiella pneumoniae, clinical isolate, CAMHB, median of triplicates, read-out: MIC (μg/mL) K. pneumoniae 13883
Description: as §4

[7] = system: SOS stress response in E. coli TOP10F’; assay: SOS stress reporter assay (PlexA-mNG); format: cell-based; conditions: Fig. S4
Description: (§5) To examine the potential link between DNA gyrase inhibition, SOS stress, and CE stress, we designed a fluorescent SOS reporter plasmid, similar to the reporter plasmids used to study CE stresses.
Figure S3: Growth kinetics of lomefloxacin, gepotidacin, A2 and B1 on WT, FQR and GEPR mutants. E. coli TOP10F’ cells were treated with EC80 concentrations of compounds and growth (OD600) recorded over time.
Graphs indicate % growth compared to DMSO control. Error bars indicate standard deviations of triplicates.
Data are representative of three independent experiments with similar results.
Fold change (RFU/OD600) MMC 1.6 μM
Fold change (RFU/OD600) Lome 18 μM
Figure S4: SOS stress induced by mitomycin C (MMC) and lomefloxacin (Lome). A) E. coli MC4100 or B) TOP10F’ cells with a plasmid expressing mNeonGreen under control of a PlexA promotor were treated with compounds and growth (OD600) and fluorescence recorded over time. Graphs indicate fold change in growth-adjusted fluorescence compared to DMSO control. Error bars indicate standard deviations of triplicates. […]

[8] = system: SOS stress response in E. coli MC4100; assay: SOS stress reporter assay (PlexA-mNG); format: cell-based; conditions: EC80 compound concentrations (Fig. 5A); Fig. S4
Description: as §5
5 (A) SOS stress induced by different compounds at EC80 concentrations in E. coli MC4100. (B) Rcs stress of different compounds at EC80 concentrations in E. coli MC4100. (C) Rcs stress of the nonquinolone gyrase inhibitor LEI-800 in TOP10F’. (D) Rcs stress induced by mitomycin C in E. coli TOP10F’ and E. coli MC4100. Graphs show fold change in fluorescence adjusted for bacterial growth (OD600). Error bars indicate standard deviation of triplicates. Data are representative of two independent experiments with similar results.

[9] = system: heat shock (groES) response in E. coli TOP10F’; assay: Heat shock (groES) stress kinetics reporter assay; format: cell-based; conditions: PMBN 25 μg/mL
Description: as §2
as §3, with “Error bars indicate standard deviation of the average of triplicate samples from at least two independent experiments. (F) Overview of the different stress responses based on the compound class.” left out
as §1

[10] = compounds at EC80, PMBN 25 μg/mL
[11] = Figure 3F, compounds at EC80, PMBN 25 μg/mL

NC(N)=NC(=O)CC(Nc1nc(N=C(N)N)nc(NC2CCC(NC(=O)Cn3nnc(-c4ccc(F)cc4)n3)CC2)n1)C1CC1 (stereo not shown) [MRL-494, reference compound]
% effect (Rcs stress-induced fluorescence) [1]: 100.4% | EC50 TOP10F' (E. coli TOP10F'; growth after 7 hours inhibited by 50% compared to DMSO control): 16 µg/mL (≈ 25.7 µM) | EC80 TOP10F' (E. coli TOP10F'; growth after 7 hours inhibited by 80% compared to DMSO control): 32 µg/mL (≈ 51.4 µM)

O=c1ccc2ncc(=O)n3c2n1C[C@H]3CN1CCC(NCc2cc3c(cn2)OCCC3)CC1 [gepotidacin, Gepotidacin, reference compound]
Rcs stress in FQR (gyrA S83L) mutant [2]: still exhibited Rcs stress | Rcs stress in GEPR mutant [2]: did not show Rcs stress | Cpx onset time ([3]; EC80 concentrations): 150 to 200 min | Rcs onset time ([4]; EC80 concentrations): ~100 min | time of (first) Rcs peak post-treatment ([4]; EC80 concentrations): 260 to 280 min | fold increase in Rcs stress (up to) ([4]; EC80 concentrations, fluorescence/OD600 vs DMSO, 10 h): ~17 fold | Rcs Pattern [4, 10]: biphasic | growth inhibition / susceptibility of FQR (gyrA S83L) mutant [5]: remained susceptible to growth inhibition | growth inhibition / susceptibility of GEPR mutant [5]: moderate insensitivity | time of primary σE peak ([6]; EC80 concentrations): ~150 min | σE onset time ([6]; EC80 concentrations): ~60 min | fold change in σE stress (up to) ([6]; EC80 concentrations, vs DMSO): ~3 fold | σE Pattern [6, 10]: biphasic | EC50 (E. coli MC4100): 1 µg/mL (≈ 2.23 µM) | IC80 (E. coli MC4100): 8 µg/mL (≈ 17.8 µM) | MIC (E. coli TOP10F’): 0.06 µg/mL (≈ 0.134 µM) | MIC (S. aureus USA 300): 0.25 µg/mL (≈ 0.557 µM) | MIC (E. coli 25922): 2 µg/mL (≈ 4.46 µM) | MIC (A. baumanni 9955): 16 µg/mL (≈ 35.7 µM) | MIC (E. coli BW25113): 1 µg/mL (≈ 2.23 µM) | MIC (P. aeruginosa 27853): 8 µg/mL (≈ 17.8 µM) | MIC (K. pneumoniae 13883): 4 µg/mL (≈ 8.92 µM) | EC50 (E. coli TOP10F'): 0.125 µg/mL (≈ 0.279 µM) | IC80 (E. coli TOP10F'): 8 µg/mL (≈ 17.8 µM)

CCn1cc(C(=O)O)c(=O)c2cc(F)c(N3CCNC(C)C3)c(F)c21 (stereo not shown) [lomefloxacin, Lomefloxacin, reference compound]
Rcs stress in FQR (gyrA S83L) mutant [2]: lacked Rcs stress | growth inhibition / susceptibility of GEPR mutant [5]: less susceptible | EC50 (E. coli MC4100): 0.125 µg/mL (≈ 0.356 µM) | IC80 (E. coli MC4100): 0.25 µg/mL (≈ 0.712 µM) | SOS stress induction in TOP10F’ [7]: did not induce high fluorescence | EC50 (E. coli TOP10F'): 0.031 µg/mL (≈ 0.0882 µM) | IC80 (E. coli TOP10F'): 2 µg/mL (≈ 5.69 µM) | SOS stress induction in MC4100 [8]: high fluorescence

CO[C@@]12[C@H](COC(N)=O)C3=C(C(=O)C(C)=C(N)C3=O)N1C[C@@H]1N[C@@H]12 [mitomycin C]
Rcs stress induction in MC4100 wildtype [2]: Neither compound induced Rcs stress | Rcs stress induction in SOS-deficient TOP10F’ ([4]; fold change fluorescence/OD600): at lower levels than the gyrase inhibitors | SOS stress induction in TOP10F’ [7]: did not induce high fluorescence | SOS stress induction in MC4100 [8]: high fluorescence

polymyxin B nonapeptide [PMBN]
heat shock induction [9]: did not induce heat shock | Cpx Pattern [3, 11]: Continuous | Cpx Response time [3, 11]: Slow | Rcs Response time [4, 11]: Fast | Rcs Pattern [4, 10]: Single peak | σE Response time [6, 11]: Fast | σE Pattern [6, 10]: Single peak
